Assay results from patent EP0444659B1, “A pharmaceutical solution comprising derivatives of FK506” (FUJISAWA PHARMACEUTICAL CO., LTD., priority 1990, dated 1991).
Converted amounts (≈) assume the structure as drawn.

Legend:
Type in all cases: physicochemical
physchem = assay: physchem
Description: From the above point of view, the inventors of the present invention studied, at first, the solubility of the compound (I) in water. As a test compound, the inventors selected the following compound as a free form which has an excellent immunosupressive activity and is called FK 506 hereafter. R^1, R^2, R^8, R^23 = hydrogen R^7, R^9 = hydroxy R^14, R^15, R^16, R^17, R^18, R^19, R^22 = methyl R^10 = allyl R^20 = R^20a,H (R^20a = methoxy) X, Y = oxygen R^21 = R^21a,H (R^21a = hydroxy) n = 2 R^3, R^4 = form a second bond between the vicinal carbon atoms to which they are attached R^5, R^6 = form a second bond between the vicinal carbon atoms to which they are attached
The solubility of FK 506 in water is at most 3 µg/ml under ambient temperature. Accordingly, it is decided to add a surface active agent in order to increase the solubility of FK 506 in water to the level where the clinically effective amount of FK 506 is dissolved. […] As a surface active agent, a castor oil-surface active agent i.e., HCO-10, HCO-40, HCO-60 (trademark, prepared by Nikko Chemicals, respectively) are selected for examination.
It is conjectured from the result shown in Table 1 that the concentration of the surface active agent should be controlled at 1.43w/v% [about 150mg of the surface active agent against 1mg of FK506] to dissolve 0.1mg of FK 506 in 1ml of water, calculating based on the result that 0.035mg of FK 506 is dissolved in 1ml of 0.5w/v% HCO-60 aqueous solution at 20 °C. Accordingly, if it is desired to prepare 5mg/ml aqueous solution FK 506, the concentration of the surface active agent is estimated to come up to 87w/v% from the calculation based on the result of HCO-60, 20w/v%, 20°C. Such […] high concentration of surface active agent in aqueous solution should not be realized in practice of clinical field.

[1] = solubility of FK 506 in nonaqueous solvents; settings: for solubility: ambient temperature
[2] = dilution of the solution with physiological saline: clarity, turbidity and crystal separation
Method: Nonaqueous solvent is, at the time of administrating into the human vascular tract, usually diluted with aqueous solvent such as physiological saline, since nonaqueous solvent has hemolysis action.
The experimental solution (1ml) of the following prescription 3 consisting of FK 506, surface active agent and nonaqueous solvent was diluted with physiological saline (100ml) to find that the clear appearance of prescription was kept unchanged.
Then several prescriptions of clear solution were further prepared altering the concentration of FK 506, the kind and the concentration of surface active agent, and were tested how change the clearity of the solution and whether separate out the crystal or not under the several condition of different degree of dilution.

[3] = remaining percentage of FK 506 in aqueous solution with large amount of surface active agent (storage stability); settings: FK 506 dissolved in water in the presence of large amount of surface active agent; Table 2 is an image

## C=CCC1C=C(C)CC(C)CC(OC)C2OC(O)(C(=O)C(=O)N3CCCCC3C(=O)OC(C(C)=CC3CCC(O)C(OC)C3)C(C)C(O)CC1=O)C(C)CC2OC (stereo not shown) [FK 506, 17-allyl-1,14-dihydroxy-12-[2-(4-hydroxy-3-methoxycyclohexyl)-1-methylvinyl]-23, 25-dimethoxy-13,19,21,27-tetramethyl-11, 28-dioxa-4-azatricyclo-[22.3.1.0^4.9] octacos-18-ene-2,3,10,16-tetraone]
physchem
  amount of the surface active agent against 1mg of FK506: about 150 mg
  concentration of the surface active agent to prepare 5mg/ml aqueous solution FK 506: 87 w/v%
physchem; calculated from 0.035mg/ml in 0.5w/v% HCO-60 at 20 °C
  concentration of the surface active agent to dissolve 0.1mg of FK 506 in 1ml of water: 1.43 w/v%
physchem; hco-40 5 w/v% aqueous, solubility of FK506
  solubility: 400 µg/mL (≈ 497 µM)
physchem; hco-40 10 w/v% aqueous, solubility of FK506
  solubility: 780 µg/mL (≈ 970 µM)
physchem; hco-40 20 w/v% aqueous, solubility of FK506
  solubility: 1520 µg/mL (≈ 1890 µM)
physchem; hco-60 0.1 w/v% aqueous, solubility of FK506
  solubility: 5 µg/mL (≈ 6.22 µM)
physchem; hco-60 0.3 w/v% aqueous, solubility of FK506
  solubility: 19 µg/mL (≈ 23.6 µM)
physchem; hco-60 0.5 w/v% aqueous, solubility of FK506
  solubility: 35 µg/mL (≈ 43.5 µM)
physchem; hco-60 5 w/v% aqueous
  solubility of FK506: 290 µg/mL
physchem; hco-60 5 w/v% aqueous, solubility of FK506
  solubility: 280 µg/mL (≈ 348 µM)
physchem; hco-60 10 w/v% aqueous
  solubility of FK506: 570 µg/mL
physchem; hco-60 10 w/v% aqueous, solubility of FK506
  solubility: 610 µg/mL (≈ 759 µM)
physchem; hco-60 20 w/v% aqueous
  solubility of FK506: 1140 µg/mL
physchem; hco-60 20 w/v% aqueous, solubility of FK506
  solubility: 1150 µg/mL (≈ 1430 µM)
physchem; hco-60/hco-10 (4:1) 5 w/v%
  solubility of FK506: 270 µg/mL
physchem; hco-60/hco-10 (4:1) 5 w/v%, solubility of FK506
  solubility: 260 µg/mL (≈ 323 µM)
physchem; hco-60/hco-10 (4:1) 10 w/v%
  solubility of FK506: 560 µg/mL
physchem; hco-60/hco-10 (4:1) 10 w/v%, solubility of FK506
  solubility: 560 µg/mL (≈ 696 µM)
physchem; hco-60/hco-10 (4:1) 20 w/v%
  solubility of FK506: 1140 µg/mL
physchem; hco-60/hco-10 (4:1) 20 w/v%, solubility of FK506
  solubility: 1130 µg/mL (≈ 1410 µM)
physchem; water, solubility of FK 506 in water
  solubility: ≤ 3 µg/mL
[1]; PEG 400, ethanol and propylene glycol (summary of Table 3)
  concentration at which FK 506 is dissolved in the experimented solvent: more than 40 mg/ml
[1]; Solvent Ethanol
  solubility: > 300000 µg/mL
[1]; Solvent PEG 400
  solubility: > 40000 µg/mL
[1]; Solvent Propylene glycol
  solubility: > 40000 µg/mL
[2]; FK 506 5 mg/ml, dilution times with physiological saline 2, Cremophor®EL, ethanol/surface active agent 35/65
  Period till solution becomes turbid to crystallize FK506: ≧7 days
[2]; FK 506 5 mg/ml, dilution times with physiological saline 2, Cremophor®EL, ethanol/surface active agent 80/20
  Period till solution becomes turbid to crystallize FK506: ≧7 days
[2]; FK 506 5 mg/ml, dilution times with physiological saline 2, HCO-40, ethanol/surface active agent 40/60
  Period till solution becomes turbid to crystallize FK506: ≧7 days
[2]; FK 506 5 mg/ml, dilution times with physiological saline 2, HCO-40, ethanol/surface active agent 80/20
  Period till solution becomes turbid to crystallize FK506: ≧7 days
[2]; FK 506 5 mg/ml, dilution times with physiological saline 2, HCO-60, ethanol/surface active agent 35/65
  Period till solution becomes turbid to crystallize FK506: ≧7 days
[2]; FK 506 5 mg/ml, dilution times with physiological saline 2, HCO-60, ethanol/surface active agent 60/40
  Period till solution becomes turbid to crystallize FK506: ≧7 days
[2]; FK 506 5 mg/ml, dilution times with physiological saline 2, HCO-60, ethanol/surface active agent 80/20
  Period till solution becomes turbid to crystallize FK506: ≧7 days
[2]; FK 506 5 mg/ml, dilution times with physiological saline 100, Cremophor®EL, ethanol/surface active agent 35/65
  Period till solution becomes turbid to crystallize FK506: ≧7 days
[2]; FK 506 5 mg/ml, dilution times with physiological saline 100, Cremophor®EL, ethanol/surface active agent 80/20
  Period till solution becomes turbid to crystallize FK506: ≧7 days
[2]; FK 506 5 mg/ml, dilution times with physiological saline 100, HCO-40, ethanol/surface active agent 40/60
  Period till solution becomes turbid to crystallize FK506: ≧7 days
[2]; FK 506 5 mg/ml, dilution times with physiological saline 100, HCO-40, ethanol/surface active agent 80/20
  Period till solution becomes turbid to crystallize FK506: ≧7 days
[2]; FK 506 5 mg/ml, dilution times with physiological saline 100, HCO-60, ethanol/surface active agent 35/65
  Period till solution becomes turbid to crystallize FK506: ≧7 days
[2]; FK 506 5 mg/ml, dilution times with physiological saline 100, HCO-60, ethanol/surface active agent 60/40
  Period till solution becomes turbid to crystallize FK506: ≧7 days
[2]; FK 506 5 mg/ml, dilution times with physiological saline 100, HCO-60, ethanol/surface active agent 80/20
  Period till solution becomes turbid to crystallize FK506: ≧7 days
[2]; FK 506 10 mg/ml, dilution times with physiological saline 2, Cremophor®EL, ethanol/surface active agent 35/65
  Period till solution becomes turbid to crystallize FK506: ≧7 days
[2]; FK 506 10 mg/ml, dilution times with physiological saline 2, Cremophor®EL, ethanol/surface active agent 80/20
  Period till solution becomes turbid to crystallize FK506: ≧7 days
[2]; FK 506 10 mg/ml, dilution times with physiological saline 2, HCO-40, ethanol/surface active agent 40/60
  Period till solution becomes turbid to crystallize FK506: ≧7 days
[2]; FK 506 10 mg/ml, dilution times with physiological saline 2, HCO-40, ethanol/surface active agent 80/20
  Period till solution becomes turbid to crystallize FK506: ≧7 days
[2]; FK 506 10 mg/ml, dilution times with physiological saline 2, HCO-60, ethanol/surface active agent 35/65
  Period till solution becomes turbid to crystallize FK506: ≧7 days
[2]; FK 506 10 mg/ml, dilution times with physiological saline 2, HCO-60, ethanol/surface active agent 60/40
  Period till solution becomes turbid to crystallize FK506: ≧7 days
[2]; FK 506 10 mg/ml, dilution times with physiological saline 2, HCO-60, ethanol/surface active agent 80/20
  Period till solution becomes turbid to crystallize FK506: ≧7 days
[2]; FK 506 10 mg/ml, dilution times with physiological saline 100, Cremophor®EL, ethanol/surface active agent 35/65
  Period till solution becomes turbid to crystallize FK506: ≧7 days
[2]; FK 506 10 mg/ml, dilution times with physiological saline 100, Cremophor®EL, ethanol/surface active agent 80/20
  Period till solution becomes turbid to crystallize FK506: ≧7 days
[2]; FK 506 10 mg/ml, dilution times with physiological saline 100, HCO-40, ethanol/surface active agent 40/60
  Period till solution becomes turbid to crystallize FK506: ≧7 days
[2]; FK 506 10 mg/ml, dilution times with physiological saline 100, HCO-40, ethanol/surface active agent 80/20
  Period till solution becomes turbid to crystallize FK506: ≧7 days
[2]; FK 506 10 mg/ml, dilution times with physiological saline 100, HCO-60, ethanol/surface active agent 35/65
  Period till solution becomes turbid to crystallize FK506: ≧7 days
[2]; FK 506 10 mg/ml, dilution times with physiological saline 100, HCO-60, ethanol/surface active agent 60/40
  Period till solution becomes turbid to crystallize FK506: ≧7 days
[2]; FK 506 10 mg/ml, dilution times with physiological saline 100, HCO-60, ethanol/surface active agent 80/20
  Period till solution becomes turbid to crystallize FK506: ≧7 days
[2]; FK 506 25 mg/ml, dilution times with physiological saline 2, Cremophor®EL, ethanol/surface active agent 35/65
  Period till solution becomes turbid to crystallize FK506: ≧7 days
[2]; FK 506 25 mg/ml, dilution times with physiological saline 2, Cremophor®EL, ethanol/surface active agent 80/20
  Period till solution becomes turbid to crystallize FK506: ≧7 days
[2]; FK 506 25 mg/ml, dilution times with physiological saline 2, HCO-40, ethanol/surface active agent 40/60
  Period till solution becomes turbid to crystallize FK506: ≧7 days
[2]; FK 506 25 mg/ml, dilution times with physiological saline 2, HCO-40, ethanol/surface active agent 80/20
  Period till solution becomes turbid to crystallize FK506: ≧7 days
[2]; FK 506 25 mg/ml, dilution times with physiological saline 2, HCO-60, ethanol/surface active agent 35/65
  Period till solution becomes turbid to crystallize FK506: ≧7 days
[2]; FK 506 25 mg/ml, dilution times with physiological saline 2, HCO-60, ethanol/surface active agent 60/40
  Period till solution becomes turbid to crystallize FK506: ≧7 days
[2]; FK 506 25 mg/ml, dilution times with physiological saline 2, HCO-60, ethanol/surface active agent 80/20
  Period till solution becomes turbid to crystallize FK506: ≧7 days
[2]; FK 506 25 mg/ml, dilution times with physiological saline 100, Cremophor®EL, ethanol/surface active agent 35/65
  Period till solution becomes turbid to crystallize FK506: ≧7 days
[2]; FK 506 25 mg/ml, dilution times with physiological saline 100, Cremophor®EL, ethanol/surface active agent 80/20
  Period till solution becomes turbid to crystallize FK506: ≧1 days
[2]; FK 506 25 mg/ml, dilution times with physiological saline 100, HCO-40, ethanol/surface active agent 40/60
  Period till solution becomes turbid to crystallize FK506: ≧7 days
[2]; FK 506 25 mg/ml, dilution times with physiological saline 100, HCO-40, ethanol/surface active agent 80/20
  Period till solution becomes turbid to crystallize FK506: ≧1 days
[2]; FK 506 25 mg/ml, dilution times with physiological saline 100, HCO-60, ethanol/surface active agent 35/65
  Period till solution becomes turbid to crystallize FK506: ≧7 days
[2]; FK 506 25 mg/ml, dilution times with physiological saline 100, HCO-60, ethanol/surface active agent 60/40
  Period till solution becomes turbid to crystallize FK506: ≧1 days
[2]; FK 506 25 mg/ml, dilution times with physiological saline 100, HCO-60, ethanol/surface active agent 80/20
  Period till solution becomes turbid to crystallize FK506: ≧7 days
[2]; FK 506 50 mg/ml, dilution times with physiological saline 2, Cremophor®EL, ethanol/surface active agent 35/65
  Period till solution becomes turbid to crystallize FK506: ≧7 days
[2]; FK 506 50 mg/ml, dilution times with physiological saline 2, Cremophor®EL, ethanol/surface active agent 80/20
  Period till solution becomes turbid to crystallize FK506: ≧1 days
[2]; FK 506 50 mg/ml, dilution times with physiological saline 2, HCO-40, ethanol/surface active agent 40/60
  Period till solution becomes turbid to crystallize FK506: ≧7 days
[2]; FK 506 50 mg/ml, dilution times with physiological saline 2, HCO-40, ethanol/surface active agent 80/20
  Period till solution becomes turbid to crystallize FK506: ≧1 days
[2]; FK 506 50 mg/ml, dilution times with physiological saline 2, HCO-60, ethanol/surface active agent 35/65
  Period till solution becomes turbid to crystallize FK506: ≧7 days
[2]; FK 506 50 mg/ml, dilution times with physiological saline 2, HCO-60, ethanol/surface active agent 60/40
  Period till solution becomes turbid to crystallize FK506: ≧7 days
[2]; FK 506 50 mg/ml, dilution times with physiological saline 2, HCO-60, ethanol/surface active agent 80/20
  Period till solution becomes turbid to crystallize FK506: ≧7 days
[3]
  remaining percentage of FK 506 in aqueous solution (storage stability): stability for long period storage is not expectable
